We go through 25 compounds from patent US5563158A, “Aromatic compounds containing basic and acidic termini useful as fibrinogen receptor antagonists” (The Dupont Merck Pharmaceutical Company, priority 1994, dated 1996).

Counter-ions that a name gives are not always drawn.

This assay concerns platelet-rich plasma (PRP) platelets. Description: Platelet aggregation assay (agonist-induced aggregation in human platelet-rich plasma, aggregometer). The format is cell-based. Conditions: inhibition of agonist-induced platelet aggregation, test compounds added prior to activation of the platelets. The method, then: Platelet Aggregation Assay:
Venous blood was obtained from the arm of a healthy human donor who was drug-free and aspirin-free for at least two weeks prior to blood collection. Blood was collected into 10 mL citrated Vacutainer tubes. The blood was centrifuged for 15 minutes at 150×g at room temperature, and platelet-rich plasma (PRP) was removed. The remaining blood was centrifuged for 15 minutes at 1500×g at room temperature, and platelet-poor plasma (PPP) was removed. Samples were assayed on a aggregometer (PAP-4 Platelet Aggregation Profiler), using PPP as the blank (100% transmittance). 200 μL of PRP was added to each micro test tube, and transmittance was set to 0%. 20 μL of various agonists (ADP, collagen, arachidonate, epinephrine, thrombin) were added to each tube, and the aggregation profiles were plotted (% transmittance versus time). The results are expressed as % inhibition of agonist-induced platelet aggregation. For the IC50 evaluation, the test compounds were added at various concentrations prior to the activation of the platelets.
For orientation: IC50 means the concentration that inhibits the measured activity by half. Low values mean greater potency in that assay, high ones weaker potency in that assay. For `CCCCS(=O)(=O)N[C@@H](CNC(=O)c1cccc(COc2ccc(C(=N)N)cc2)c1)C(=O)O` [Example 14, N^2-1-butanesulfonyl-N^3-(3-(4-amidinophenyloxymethyl)benzoyl)-2,3-diaminopropionic acid TFA salt], the IC50 was under 10 µM. The figure for `CC(CC(=O)O)NC(=O)c1cccc(OCc2ccc(C(=N)N)cc2)c1` (racemic) [Example 91, N-(3-(4-amidinobenzyloxy)benzoyl)-DL-3-aminobutyric acid TFA salt] is under 10 µM; for `COC(=O)[C@H](CNC(=O)c1cccc(COc2ccc(C(=N)N)cc2)c1)NC(=O)Cc1ccccn1` [Example 500a] it is under 10 µM. With `O=C(O)CC1CCCCN1C(=O)c1ccc(OCCC2CCNCC2)cc1` (stereo not shown) [Example 482] the figure was 51 to 100 µM; with `COC(=O)[C@H](CNC(=O)c1cccc(COc2ccc(C(=N)N)cc2)c1)NC(=O)Cc1ccncc1` [Example 501a], under 10 µM; with `O=C(O)CCNC(=O)c1cccc(OCCCC2CCNCC2)c1` [Example 84a], under 10 µM. The figure for `Cc1ccc(S(=O)(=O)N[C@@H](CNC(=O)c2cccc(COc3ccc(C(=N)N)cc3)c2)C(=O)O)cc1` [Example 16, N^2-p-toluenesulfonyl-N^3-(3-(4-amidinophenyloxymethyl)benzoyl)-L-2,3-diaminopropionic acid TFA salt] is under 10 µM. For the compound `CCCCOC(=O)N[C@@H](CNC(=O)c1cc(OCc2ccc(C(=N)N)cc2)no1)C(=O)OC` [Example 142, Methyl N^2-n-butyloxycarbonyl-N^3-[3-(4-amidinobenzyloxy)-5 isoxazolecarbonyl]-L-2,3-diaminopropionate TFA salt], the IC50 was under 10 µM. The compound `N=C(N)c1ccc(OCc2cccc(C(=O)NCCC(=O)O)c2)cc1` [Example 27, N-(3-(4-amidinophenyloxymethyl)benzoyl)-3-aminopropionic acid TFA salt] gave an IC50 of under 10 µM. With `O=C(O)CCNC(=O)c1ccc(OCCCC2CCNCC2)cc1` [Example 84b, TFA salt] the figure was under 10 µM. The figure for `N=C(N)c1ccc(COc2cccc(C(=O)NC(CC(=O)O)C(F)(F)F)c2)cc1` (racemic) [Example 92, N-(3-(4-amidinobenzyloxy)benzoyl)-DL-3-amino-4,4,4-trifluorobutyric acid TFA salt] is 51 to 100 µM; for `CCOC(=O)C(CNC(=O)c1cccc(COc2ccc(C(=N)N)cc2)c1)NC(=O)OCc1ccccc1` (stereo not shown) [Example 110] it is 10 to 50 µM. On to `COC(=O)[C@H](CNC(=O)c1cccc(COc2ccc(C(=N)N)cc2)c1)NC(=O)CCc1ccccc1` [Example 6a, Methyl N^2-(3-phenylpropionyl)-N^3-(3-(4-amidinophenyloxymethyl)benzoyl)-L-2,3-diaminopropionate TFA salt], for which the IC50 was under 10 µM. As to `O=C(O)CC1CCCCN1C(=O)c1ccc(OCCCC2CCNCC2)cc1` (stereo not shown) [Example 480], the IC50 lay in the range of 10 to 50 µM.

The compound `COC(=O)[C@H](CNC(=O)c1cccc(COc2ccc(C(=N)N)cc2)c1)NC(=O)c1ccccn1` [Example 18a] came in with an IC50 of under 10 µM. `CCCCOC(=O)N[C@@H](CNC(=O)c1cccc(COc2ccc(C(=N)N)cc2)c1)C(=O)OC` [Example 3a, Methyl N-^2-1-butyloxycarbonyl-N^3-(3-(4-amidinophenyloxymethyl)benzoyl)-L-2,3-diaminopropionate TFA salt] gave a half-maximal inhibitory concentration (IC50) of under 10 µM. With `N=C(N)c1ccc(OCc2cccc(C(=O)NC[C@H](NC(=O)OCc3ccccc3)C(=O)O)c2)cc1` [Example 53, N^2 -Cbz-N^3-(3-(4-amidinophenyloxymethyl)benzoyl)-L-2,3-diaminopropionic acid TFA salt], the concentration for half-maximal inhibition (IC50) was under 10 µM.

Compound `CC(CC(=O)O)NC(=O)c1cccc(COc2ccc(C(=N)N)cc2)c1` (racemic) [Example 85, N-(3-(4-Amidinophenyloxymethyl)benzoyl)-DL-3-aminobutyric acid TFA salt] gave a half-inhibitory concentration (IC50) of under 10 µM. Turning to `CCCCOC(=O)N[C@@H](CNC(=O)c1cc(OCc2ccc(C(=N)N)cc2)no1)C(=O)O` [Example 123, N^2-n-butyloxycarbonyl-N^3-[3-(4-amidinobenzyloxy)-5-isoxazolecarbonyl]-L-2,3-diaminopropionate TFA salt], the IC50 was under 10 µM. With `O=C(O)CC1CCCCCN1C(=O)c1ccc(OCCCC2CCNCC2)cc1` (stereo not shown) [Example 481] the figure was 10 to 50 µM; with `COC(=O)[C@H](CNC(=O)c1cccc(COc2ccc(C(=N)N)cc2)c1)NC(=O)c1cccnc1` [Example 19a, Methyl-N^2-nicotinoyl-N^3-[3-(4-amidinophenyloxymethyl)benzoyl]-L-2,3-diaminopropionate, TFA salt], under 10 µM; with `COC(=O)[C@H](CNC(=O)c1cccc(COc2ccc(C(=N)N)cc2)c1)NS(=O)(=O)c1ccc(C)cc1` [Example 16a, Methyl N^2-p-toluenesulfonyl-N^3-(3-(4-amidinophenyloxymethyl)benzoyl)-L-2,3-diaminopropionate TFA salt], 10 to 50 µM. The figure for `COC(=O)[C@H](CNC(=O)c1cccc(COc2ccc(C(=N)N)cc2)c1)NC(=O)c1ccncc1` [Example 20a] is under 10 µM; for `CCCCOC(=O)N[C@@H](CNC(=O)c1cc(OCC2CCN(C(=N)N)CC2)no1)C(=O)OC` [Example 479, Methyl N^2-n-butyloxycarbonyl-N-[3-(N-amidino-4-piperidinylmethoxy)-5-isoxazolecarbonyl]-L-2,3-diaminopropionate TFA salt] it is under 10 µM; for `COC(=O)[C@H](CNC(=O)c1cccc(COc2ccc(C(=N)N)cc2)c1)NC(=O)Cc1cccnc1` [Example 119a, Methyl-N^2-3-pyridylacetoyl-N^3-[3-(4-amidinophenyloxymethyl)benzoyl]-L-2,3-diaminopropionate] it is under 10 µM.
